Measurements taken from patent publication US6410593B1, “Antidandruff compositions” (priority 1998, dated 2002).
Where two headings read alike, the source gives them in different places.

How the values were obtained:
dandruff = test: antidandruff efficacy test over 15 days on a Test Panel of 20 individuals; assay type: in vivo; settings: for Area occupied by dandruff, percentage of variations on D15 relative to D1 / Dandruff removal index, percentage of variations on D15 relative to D1: products at their M.I.C. (2% and 0.2%)
Text: (§1) Undecylenamidopropylbetaine (Amphoram®U from CECA S.A.) was compared with piroctone olamine (CFTA) or 1-hydroxy-4-methyl-6-(2,4,4-trimethylpentyl)-2(1H)pyridone; ethanol (1:1) salt (RN=68890-66-4), taken in its commercial form as Octopyrox® (Hoechst), at the minimum inhibitory doses (M.I.C.) for Pityrosporum ovalae, i.e., respectively, 2% and 0.2% beforehand.

[1] = sebumetry index measured with the Courage-Khazka sebumeter, Test Panel of 20 individuals; settings: 15 days
Pityrosporum ovalae = test: minimum inhibitory doses (M.I.C.) for Pityrosporum ovalae; assay type: cell-based
Text: as §1

[2] = in vivo
[3] = background statement; cited from earlier work

Row | Compound | state of dandruff (decrease in the area occupied and increase in the dandruff removal index) (dandruff) | Area occupied by dandruff, percentage of variations on D15 relative to D1 (dandruff) | Dandruff removal index, percentage of variations on D15 relative to D1 (dandruff) | Sebumetry index, percentage of variation on D15 relative to D1 [1] | minimum inhibitory doses (M.I.C.) for Pityrosporum ovalae (Pityrosporum ovalae) | Sebumetry index, percentage of variation on D15 relative to D1 [2] | solubility in water [3]
1 | CCO.Cc1cc(CC(C)CC(C)(C)C)n(O)c(=O)c1 (stereo not drawn) [Octopyrox, 1-hydroxy-4-methyl-6-(2,4,4-trimethylpentyl)-2(1H)pyridone; ethanol (1:1) salt] | remained stable | −7% | −5% | −4% | 0.2% |  | 
2 | N-(carboxymethyl)-N,N-dimethyl-3-[(1-oxoundecenyl)amino]-1-propanaminium hydroxide [Amphoram U] | 30 to 40% | −29% | −36% |  | 2% | −7% | 
3 | CC(C)(C)C(=O)C(Oc1ccc(Cl)cc1)n1ccnc1 (stereo not drawn) [climbazole] |  |  |  |  |  |  | water-insoluble
4 | zinc pyrithione |  |  |  |  |  |  | water-insoluble
